Measurements published in ChEMBL document CHEMBL4421722, “Inhibitors of protein prenyltransferases” (2013).

species on record: Rattus norvegicus; assay: Inhibition of rat recombinant geranylgeranyltransferase type I expressed in Escherichia coli assessed as residual enzyme activity for geranylgeranylation of K-Ras4B at 50 uM incubated for 30 mins in presence of [3H]GGPP by scintillation counting assay relative to control

SMILES | Activity [%]
Cc1ccc(S(=O)(=O)N2[C@@H](c3cccc(F)c3)C(C(=O)O)=CC[C@H]2c2ccc3c(c2)OCO3)cc1 | 90.9
COc1cc([C@@H]2C[C@@H](SCC(C)C)[C@H](C(=O)O)CN2S(=O)(=O)c2ccc(C)cc2)cc(OC)c1OC | 98.3
COc1ccc([C@@H]2CC=C(C(=O)O)[C@H](c3ccc(F)cc3)N2S(=O)(=O)c2ccc(C)cc2)cc1 | 72.9
Cc1ccc([C@@H]2CC=C(C(=O)O)[C@H](c3ccc(Cl)cc3)N2S(=O)(=O)c2ccc(Cl)cc2)cc1 | 63.8
Cc1ccc([C@@H]2C[C@@H](Sc3ccccc3)[C@H](C(=O)O)CN2S(=O)(=O)c2ccc(C)cc2)cc1 | 63.2
Cc1ccc(S(=O)(=O)N2[C@@H](c3cccc(Cl)c3)C(C(=O)O)=CC[C@H]2c2ccc3c(c2)OCO3)cc1 | 73.9
CCc1ccc([C@@H]2C[C@@H](SCc3ccc(C(C)(C)C)cc3)[C@H](C(=O)O)CN2S(=O)(=O)c2ccc(C)cc2)cc1 | 64.4
Cc1ccc(S(=O)(=O)N2[C@@H](c3ccc(C(C)(C)C)cc3)C(C(=O)O)=CC[C@H]2c2cccc(Br)c2)cc1 | 82.8
COc1ccc(S[C@@H]2C[C@@H](c3ccc(Cl)cc3)N(S(=O)(=O)c3ccc(C)cc3)C[C@H]2C(=O)O)cc1 | 85.5
CCCCCS[C@@H]1C[C@@H](c2ccc3c(c2)OCO3)N(S(=O)(=O)c2ccc(C)cc2)C[C@H]1C(=O)O | 66
CS(=O)(=O)N1[C@@H](c2cccc(Cl)c2)C(C(=O)O)=CC[C@H]1c1ccc(Cl)cc1 | 60.3
CS(=O)(=O)N1[C@@H](c2ccc(Br)cc2)C(C(=O)O)=CC[C@H]1c1ccc(Cl)cc1 | 53.6
COc1ccc([C@@H]2CC=C(C(=O)O)[C@H](c3cccc(C)c3)N2S(=O)(=O)c2ccccc2C)cc1 | 61.3
CCOc1ccc([C@@H]2CC=C(C(=O)O)[C@H](c3ccc(F)cc3)N2S(=O)(=O)c2ccc(C)cc2)cc1 | 66.2
CCCCCCS[C@@H]1C[C@@H](c2ccccc2)N(S(=O)(=O)c2ccc(C)cc2)C[C@H]1C(=O)O | 77.5
Cc1ccc(S(=O)(=O)N2C[C@@H](C(=O)O)[C@H](SCCC(C)C)C[C@H]2c2ccccc2)cc1 | 90
Cc1ccccc1S(=O)(=O)N1C[C@@H](C(=O)O)[C@H](SCC(C)C)C[C@H]1c1ccc(Cl)cc1 | 76.1
Cc1ccc(S(=O)(=O)N2[C@@H](c3ccc(C(C)(C)C)cc3)C(C(=O)O)=CC[C@H]2c2ccccc2F)cc1 | 84.2
CCCCCCS[C@@H]1C[C@@H](c2ccc(OC)cc2)N(S(=O)(=O)c2ccccc2)C[C@H]1C(=O)O | 96.2
C=CCS[C@@H]1C[C@@H](c2ccc(OC)cc2)N(S(=O)(=O)c2ccccc2C)C[C@H]1C(=O)O | 65.1
Cc1ccc([C@@H]2CC=C(C(=O)O)[C@H](c3ccc(Cl)cc3)N2S(=O)(=O)c2ccccc2)cc1 | 79.9
Cc1ccc(S(=O)(=O)N2[C@@H](c3ccc(F)cc3)C(C(=O)O)=CC[C@H]2c2ccc(C(C)C)cc2)cc1 | 50.9
C=CCS[C@@H]1C[C@@H](c2ccc(C)cc2)N(S(=O)(=O)c2ccccc2C)C[C@H]1C(=O)O | 34.5
Cc1ccc(S(=O)(=O)N2C[C@@H](C(=O)O)[C@H](SCc3ccccc3)C[C@H]2c2ccc3c(c2)OCO3)cc1 | 63.1
Cc1ccc([C@H]2C(C(=O)O)=CC[C@@H](c3ccc(C(C)C)cc3)N2S(=O)(=O)c2ccc(C)cc2)cc1 | 63.7
C=CCS[C@@H]1C[C@@H](c2ccc(OC)cc2)N(S(=O)(=O)c2ccccc2)C[C@H]1C(=O)O | 106

SMILES | Activity [%]
Cc1ccc([C@@H]2CC=C(C(=O)O)[C@H](c3ccc(Cl)cc3)N2S(C)(=O)=O)cc1 | 79.1
CCCCCCS[C@@H]1C[C@@H](c2ccc(C)cc2)N(S(C)(=O)=O)C[C@H]1C(=O)O | 83.1
CCc1ccc([C@@H]2CC=C(C(=O)O)[C@H](c3cccc(F)c3)N2S(=O)(=O)c2ccc(C)cc2)cc1 | 55
Cc1ccc(S(=O)(=O)N2[C@@H](c3ccc(Br)cc3)C(C(=O)O)=CC[C@H]2c2ccc(C#N)cc2)cc1 | 70.6
CCc1ccc([C@@H]2C[C@@H](SCc3ccccc3)[C@H](C(=O)O)CN2S(=O)(=O)c2ccc(C)cc2)cc1 | 63.1
Cc1ccc([C@@H]2C[C@@H](SCC(C)C)[C@H](C(=O)O)CN2S(=O)(=O)c2ccc(Cl)cc2)cc1 | 66.3
C=CCS[C@@H]1C[C@@H](c2ccc(CC)cc2)N(S(=O)(=O)c2ccc(C)cc2)C[C@H]1C(=O)O | 89.6
Cc1ccc([C@@H]2C[C@@H](SCc3ccc(C(C)(C)C)cc3)[C@H](C(=O)O)CN2S(=O)(=O)c2ccc(Cl)cc2)cc1 | 62
CCOc1ccc([C@@H]2CC=C(C(=O)O)[C@H](c3ccc(Br)cc3)N2S(=O)(=O)c2ccc(C)cc2)cc1 | 79.4
Cc1ccc(S(=O)(=O)N2[C@@H](c3ccc(C(C)(C)C)cc3)C(C(=O)O)=CC[C@H]2c2ccc(Cl)cc2)cc1 | 102
CCCCS[C@@H]1C[C@@H](c2ccc(OC)cc2)N(S(=O)(=O)c2ccc(C)cc2)C[C@H]1C(=O)O | 74.5
Cc1ccc([C@@H]2CC=C(C(=O)O)[C@H](c3cccc(F)c3)N2S(=O)(=O)c2ccccc2C)cc1 | 63.4
CCOc1ccc([C@@H]2C[C@@H](SCC(C)C)[C@H](C(=O)O)CN2S(=O)(=O)c2ccc(C)cc2)cc1 | 83.1
Cc1ccc([C@@H]2C[C@@H](SCCc3ccccc3)[C@H](C(=O)O)CN2S(=O)(=O)c2ccccc2)cc1 | 55.5
CCCCS[C@@H]1C[C@@H](c2ccc(OCC)cc2)N(S(=O)(=O)c2ccc(C)cc2)C[C@H]1C(=O)O | 66
Cc1ccc(S(=O)(=O)N2C[C@@H](C(=O)O)[C@H](SCC(C)C)C[C@H]2c2ccc3c(c2)OCO3)cc1 | 81.7
COc1ccc([C@@H]2CC=C(C(=O)O)[C@H](c3cccc(Cl)c3)N2S(=O)(=O)c2ccccc2)cc1 | 56.1
CCCCS[C@@H]1C[C@@H](c2ccc(C)cc2)N(S(=O)(=O)c2ccc(Cl)cc2)C[C@H]1C(=O)O | 49.2
CS(=O)(=O)N1[C@@H](c2cccc(F)c2)C(C(=O)O)=CC[C@H]1c1ccccc1 | 86.6
Cc1ccc(S(=O)(=O)N2[C@@H](c3ccc(C(C)(C)C)cc3)C(C(=O)O)=CC[C@H]2c2ccc3c(c2)OCO3)cc1 | 87.2
COc1ccc([C@@H]2CC=C(C(=O)O)[C@H](c3cccc(Br)c3)N2S(=O)(=O)c2ccccc2)cc1 | 58.2
Cc1ccc([C@@H]2CC=C(C(=O)O)[C@H](c3cccc(Cl)c3)N2S(=O)(=O)c2ccccc2)cc1 | 56.7
Cc1ccc([C@@H]2CC=C(C(=O)O)[C@H](c3ccc(C(C)(C)C)cc3)N2S(=O)(=O)c2ccc(C)cc2)cc1 | 85.5
CCCCCS[C@@H]1C[C@@H](c2ccc(Cl)cc2)N(S(=O)(=O)c2ccccc2C)C[C@H]1C(=O)O | 57.9
Cc1ccc(S(=O)(=O)N2[C@@H](c3ccc(Cl)cc3)C(C(=O)O)=CC[C@H]2c2ccccc2F)cc1 | 58.2
Cc1ccc(S(=O)(=O)N2[C@@H](c3cccc(Br)c3)C(C(=O)O)=CC[C@H]2c2ccc(F)cc2)cc1 | 72.2

More lines, now with the values ahead:

Activity [%] | SMILES
70.1 | Cc1ccc(S(=O)(=O)N2[C@@H](c3cccc(Cl)c3)C(C(=O)O)=CC[C@H]2c2ccccc2F)cc1
84.5 | COc1ccc([C@@H]2CC=C(C(=O)O)[C@H](c3cccc(Br)c3)N2S(=O)(=O)c2ccc(C)cc2)cc1
83.8 | COc1ccc([C@@H]2CC=C(C(C)=O)CN2S(=O)(=O)c2ccc(C)cc2)cc1OC
79.7 | Cc1ccc(S(=O)(=O)N2C[C@@H](C(=O)O)[C@H](SCC(C)C)C[C@H]2c2cccc(Cl)c2)cc1
34.4 | COc1cccc([C@@H]2C[C@@H](SCc3ccc(Cl)cc3)[C@H](C(=O)O)CN2S(=O)(=O)c2ccc(C)cc2)c1
76 | COc1ccc([C@@H]2CC=C(C(=O)O)[C@H](c3cccc(C)c3)N2S(=O)(=O)c2ccc(C)cc2)cc1OC
67.1 | COc1cccc([C@@H]2CC=C(C(=O)O)[C@H](c3cccc(Cl)c3)N2S(=O)(=O)c2ccc(C)cc2)c1
85.8 | COc1ccc([C@@H]2CC=C(C(=O)O)[C@H](c3cccc(C)c3)N2S(=O)(=O)c2ccc(Cl)cc2)cc1
94 | Cc1ccc(S[C@@H]2C[C@@H](c3cccc(Br)c3)N(S(=O)(=O)c3ccc(C)cc3)C[C@H]2C(=O)O)cc1
65.3 | CCOc1ccc([C@@H]2CC=C(C(=O)O)[C@H](c3cccc(C)c3)N2S(=O)(=O)c2ccc(C)cc2)cc1
73.6 | Cc1ccc([C@H]2C(C(=O)O)=CC[C@@H](c3ccc(C)cc3)N2S(=O)(=O)c2ccc(C)cc2)cc1
84.6 | CCCCCS[C@@H]1C[C@@H](c2cccc(Cl)c2)N(S(=O)(=O)c2ccc(C)cc2)C[C@H]1C(=O)O
80.8 | CC(=O)C1=CC[C@@H](c2ccc(Cl)cc2)N(S(=O)(=O)c2ccc(C)cc2)C1
102 | CC(=O)C1=CC[C@@H](c2cccc(C)c2)N(S(=O)(=O)c2ccc(C)cc2)C1
85.3 | CC(=O)C1=CC[C@@H](c2ccc(C)cc2)N(S(=O)(=O)c2ccccc2C)C1
77.2 | Cc1ccc(S(=O)(=O)N2[C@@H](c3ccc(C(C)(C)C)cc3)C(C(=O)O)=CC[C@H]2c2cccc(F)c2)cc1
60.8 | Cc1ccc(S(=O)(=O)N2[C@@H](c3ccc(Br)cc3)C(C(=O)O)=CC[C@H]2c2cccc(F)c2)cc1
60.5 | CCc1ccc([C@@H]2CC=C(C(=O)O)[C@H](c3cccc(C)c3)N2S(=O)(=O)c2ccc(C)cc2)cc1
73.5 | Cc1ccc(S(=O)(=O)N2[C@@H](c3ccc(Br)cc3)C(C(=O)O)=CC[C@H]2c2cccc(C)c2)cc1
89.3 | COc1ccc([C@@H]2CC=C(C(=O)O)[C@H](c3cccc(Cl)c3)N2S(=O)(=O)c2ccc(C)cc2)cc1
73.4 | Cc1ccc([C@H]2C(C(=O)O)=CC[C@@H](c3cccs3)N2S(=O)(=O)c2ccc(C)cc2)cc1
57.6 | Cc1ccc(S(=O)(=O)N2[C@@H](c3cccc(Cl)c3)C(C(=O)O)=CC[C@H]2c2cccc(C)c2)cc1
82.7 | CCS[C@@H]1C[C@@H](c2cccc(Br)c2)N(S(=O)(=O)c2ccc(C)cc2)C[C@H]1C(=O)O
84.8 | CCS[C@@H]1C[C@@H](c2cccc(OC)c2)N(S(=O)(=O)c2ccc(C)cc2)C[C@H]1C(=O)O
75.1 | C=CCS[C@@H]1C[C@@H](c2cccc(OC)c2)N(S(=O)(=O)c2ccc(C)cc2)C[C@H]1C(=O)O
